Experimental findings from ChEMBL document CHEMBL1201862, “PubChem BioAssay data set” (2004) are described below.

Assay [1] is described as follows: activation of miR-122 Renilla sensor silencing – cell-based, Huh7 psiCHECK-miR122, Renilla luciferase, cherry-picked, dose response (AID 651956).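 Further: huh7 hepatoma cells stably carrying a psiCHECK-2 miR-122 sensor plasmid; renilla luciferase signal reporting endogenous miR-122 activity after 48 h compound exposure.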 The class given is functional.
Assay [2] relates to Streptococcus sp. 'group A'. As to the kind of experiment: Streptococcus pyogenes SK(-)GAS viability under kanamycin – luminescence, BacTiterGlo, confirmation, counter-screen for streptokinase expression inhibitor project, dose response (AID 1900). The class given is functional, organism-based.
Assay [3] concerns the target Dual specificity protein phosphatase 3 (Homo sapiens, UniProt P51452). Briefly: VHR1 phosphatase inhibitors, biochemical (AID 1878).
Assay [4] can be described thus: loss of viability in HepG2 cells – cell-based, CellTiter-Glo, cherry-picked, cytotoxicity control for Shn3 inhibitor project, dose response (AID 624134). In kind it is functional.
For the next assay, the target named is T1, Protein RecA (Mycobacterium tuberculosis, UniProt P9WHJ3).
T1 sequence (P9WHJ3 whole entry): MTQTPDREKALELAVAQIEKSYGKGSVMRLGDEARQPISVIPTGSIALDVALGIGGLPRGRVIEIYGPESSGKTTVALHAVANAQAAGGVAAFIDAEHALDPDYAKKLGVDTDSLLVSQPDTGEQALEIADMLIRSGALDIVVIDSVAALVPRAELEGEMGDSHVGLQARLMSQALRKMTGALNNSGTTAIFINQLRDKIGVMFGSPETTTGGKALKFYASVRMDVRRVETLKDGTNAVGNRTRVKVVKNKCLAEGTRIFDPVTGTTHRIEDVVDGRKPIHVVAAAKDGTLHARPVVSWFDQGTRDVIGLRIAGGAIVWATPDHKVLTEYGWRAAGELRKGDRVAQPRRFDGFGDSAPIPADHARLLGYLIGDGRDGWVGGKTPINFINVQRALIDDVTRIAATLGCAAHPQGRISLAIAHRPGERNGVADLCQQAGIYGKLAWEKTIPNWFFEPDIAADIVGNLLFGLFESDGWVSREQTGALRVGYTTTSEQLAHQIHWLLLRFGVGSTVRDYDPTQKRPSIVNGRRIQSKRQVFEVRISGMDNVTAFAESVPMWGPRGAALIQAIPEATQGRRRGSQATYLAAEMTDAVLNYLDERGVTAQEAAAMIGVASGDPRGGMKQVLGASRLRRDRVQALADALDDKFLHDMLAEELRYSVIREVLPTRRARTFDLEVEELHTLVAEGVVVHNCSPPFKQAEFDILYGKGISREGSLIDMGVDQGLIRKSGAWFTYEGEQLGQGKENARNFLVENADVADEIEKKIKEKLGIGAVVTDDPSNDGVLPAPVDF
As to the kind of experiment: GFP-RecA MOA-DTT Measured in Biochemical System Using Plate Reader - 2047-05_Inhibitor_Dose_DryPowder_Activity. [Related pubchem assays (depositor defined):AID2223]. Details: species or system Mycobacterium tuberculosis H37Rv.

Assay [5] addresses Tyrosyl-DNA phosphodiesterase 2 (Homo sapiens, UniProt O95551). As to the kind of experiment: potency against TDP2 phosphodiesterase activity – biochemical, epi absorbance, IC50, dose response (AID 743297).
For assay [6], the target named is T2, RNA-binding protein pos-1 (Caenorhabditis elegans, UniProt G5EF15).
T2 sequence (G5EF15 whole entry): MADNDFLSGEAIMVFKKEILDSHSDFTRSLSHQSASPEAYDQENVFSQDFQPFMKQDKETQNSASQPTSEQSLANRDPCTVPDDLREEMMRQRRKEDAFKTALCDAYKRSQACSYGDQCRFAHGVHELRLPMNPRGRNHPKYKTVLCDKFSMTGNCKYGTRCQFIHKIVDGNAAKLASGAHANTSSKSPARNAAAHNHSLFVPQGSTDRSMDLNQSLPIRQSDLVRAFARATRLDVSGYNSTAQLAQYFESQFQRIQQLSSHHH
Briefly: disruptors of C. elegans POS-1 RNA interaction – biochemical, fluorescence polarization, dose response (AID 1964).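 Further: purified POS-1 fused to maltose binding protein made in E. coli; potency of compounds blocking POS-1 binding to fluorescent RNA.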

Assay [7] addresses T3, Histone-lysine N-methyltransferase NSD2 (Homo sapiens, UniProt O96028).
T3 sequence (O96028 whole entry): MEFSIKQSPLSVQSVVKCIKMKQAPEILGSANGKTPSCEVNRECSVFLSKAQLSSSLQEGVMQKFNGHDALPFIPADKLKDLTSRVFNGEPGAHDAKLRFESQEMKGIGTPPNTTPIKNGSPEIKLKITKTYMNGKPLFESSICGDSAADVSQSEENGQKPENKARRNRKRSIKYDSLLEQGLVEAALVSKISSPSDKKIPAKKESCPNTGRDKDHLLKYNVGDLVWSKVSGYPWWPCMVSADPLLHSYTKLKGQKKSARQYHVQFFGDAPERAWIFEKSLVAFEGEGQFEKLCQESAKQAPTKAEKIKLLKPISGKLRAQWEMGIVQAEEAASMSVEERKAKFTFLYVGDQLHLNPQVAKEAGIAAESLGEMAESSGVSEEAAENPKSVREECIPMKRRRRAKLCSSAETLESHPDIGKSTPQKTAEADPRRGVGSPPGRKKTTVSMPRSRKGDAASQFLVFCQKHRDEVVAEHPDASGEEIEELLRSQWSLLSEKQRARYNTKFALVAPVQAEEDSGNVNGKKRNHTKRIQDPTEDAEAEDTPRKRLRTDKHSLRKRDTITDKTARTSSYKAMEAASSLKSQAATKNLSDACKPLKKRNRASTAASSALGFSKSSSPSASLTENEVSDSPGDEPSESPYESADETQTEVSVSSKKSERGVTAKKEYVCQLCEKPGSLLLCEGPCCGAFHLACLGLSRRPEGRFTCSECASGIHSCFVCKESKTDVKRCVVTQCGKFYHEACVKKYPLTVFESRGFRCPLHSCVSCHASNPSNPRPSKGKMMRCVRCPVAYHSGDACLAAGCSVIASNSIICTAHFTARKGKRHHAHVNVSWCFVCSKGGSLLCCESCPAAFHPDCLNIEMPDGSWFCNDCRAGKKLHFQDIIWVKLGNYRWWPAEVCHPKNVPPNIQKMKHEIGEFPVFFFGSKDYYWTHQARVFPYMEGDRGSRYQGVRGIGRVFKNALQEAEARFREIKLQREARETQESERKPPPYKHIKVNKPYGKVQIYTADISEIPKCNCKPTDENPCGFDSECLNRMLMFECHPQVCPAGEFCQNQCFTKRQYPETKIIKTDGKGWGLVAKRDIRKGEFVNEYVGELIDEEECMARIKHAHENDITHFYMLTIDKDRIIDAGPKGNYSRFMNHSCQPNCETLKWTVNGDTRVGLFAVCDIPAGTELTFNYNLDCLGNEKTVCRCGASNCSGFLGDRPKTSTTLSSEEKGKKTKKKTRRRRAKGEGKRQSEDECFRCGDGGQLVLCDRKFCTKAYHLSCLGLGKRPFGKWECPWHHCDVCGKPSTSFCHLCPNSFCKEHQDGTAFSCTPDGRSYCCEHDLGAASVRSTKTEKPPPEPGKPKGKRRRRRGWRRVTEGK
In kind it is biochemical.

The target of assay [8] is Small ubiquitin-related modifier 2 (Homo sapiens, UniProt P61956). Briefly: SUMO2 binding disruption by SUMO1 hits – biochemical, FRET, human SUMO2, uHTS hits, selectivity assay for SUMO1 interaction inhibitor project, dose response (AID 624384). In kind it is functional. The conditions noted are these: read-out: IC50_Mean.

The source made the active and inactive calls.

Sequence of Small ubiquitin-related modifier 2 (P61956 whole entry): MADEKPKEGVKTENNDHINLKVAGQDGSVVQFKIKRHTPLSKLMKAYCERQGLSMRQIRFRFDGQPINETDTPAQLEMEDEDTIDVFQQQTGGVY
Sequence of Tyrosyl-DNA phosphodiesterase 2 (O95551 whole entry): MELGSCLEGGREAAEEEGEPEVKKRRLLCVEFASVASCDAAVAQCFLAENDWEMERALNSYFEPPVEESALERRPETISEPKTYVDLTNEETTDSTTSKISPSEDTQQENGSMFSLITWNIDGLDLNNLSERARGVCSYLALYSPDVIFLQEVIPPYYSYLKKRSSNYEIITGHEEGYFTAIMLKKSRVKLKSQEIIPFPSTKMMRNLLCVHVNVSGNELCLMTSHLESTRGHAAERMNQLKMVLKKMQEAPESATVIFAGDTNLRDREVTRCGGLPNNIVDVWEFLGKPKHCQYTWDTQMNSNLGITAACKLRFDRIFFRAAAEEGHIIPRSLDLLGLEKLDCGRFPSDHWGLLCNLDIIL
Sequence of Dual specificity protein phosphatase 3 (P51452 whole entry): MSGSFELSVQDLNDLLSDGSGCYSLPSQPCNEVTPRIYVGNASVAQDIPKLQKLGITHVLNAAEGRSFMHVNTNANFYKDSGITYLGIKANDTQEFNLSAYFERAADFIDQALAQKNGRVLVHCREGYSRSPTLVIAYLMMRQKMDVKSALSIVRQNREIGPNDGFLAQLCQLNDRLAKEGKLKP

For `CCCCCCCCCCn1c2c(c(=N)c3c1CCC3)CCC2`, in assay [1], the AC50 is 5.06 µM (active). For the same molecule, the EC50 in assay [2] was 5.58 µM (active).

With `Cn1nc(-c2ccccn2)nc2c(=O)n(C)c(=O)nc1-2`, the IC50 in [3] is 10.2 µM (active); in [5], 0.21 µM (active). For the same molecule, the figures for the AC50 (in assay [4]; at Protein RecA) were 5.81 µM (active) and 0.143 µM (active), respectively.

On to `COc1ccc(NS(=O)(=O)c2ccc3c(c2)[C@H]2C=CC[C@H]2[C@@H](c2ccc(C(=O)O)cc2)N3)cc1`, for which the EC50 in assay [6] is 14.3 µM (inconclusive). Further, the AC50 in assay [7] is > 20 µM (inactive). Further, in assay [8], the IC50 was 5.81 µM (active).
